The record followed here is PMC10137179, “Assessment of Covalently Binding Warhead Compounds in the Validation of the Cytomegalovirus Nuclear Egress Complex as an Antiviral Target” (Cells, 2023).

Where two headings read alike, the source gives them in different places.

A word on the EC50: it is the concentration that produces a half-maximal response. For orientation: CC50 means the concentration that lowers cell viability or growth by half.

In one data set the test system is HCMV AD169-GFP. Briefly: microbe, parasite or virus in culture. It is filed as cell-based, human cytomegalovirus (HCMV). To be noted: for SI: selectivity index CC50/EC50, AD169-GFP. The method, then:
(§1) Cytotoxicity of the analyzed compounds was determined by the Neutral Red dye uptake assay. A total of 1.35 × 10^5 HFFs per well were seeded in 96-well plates 1 d prior to analysis, cultivated overnight until cells were confluent and then incubated with compounds for 7 days. The assay was performed as described previously using 40 μg/mL Neutral Red (Sigma Aldrich). The quantity of dye incorporation was determined using the Victor X4 microplate reader (PerkinElmer, Waltham, MA, USA) by fluorescence measurement at 560/630 nm for excitation/emission, respectively. To assess antiviral activity of compounds, HFFs seeded in 96-well plates (1.35 × 10^5 HFFs per well) were infected with HCMV AD169-GFP or TB40-IE2-YFP to reach 25–50% infected cells at 7 days post-infection (d p.i.). After incubation with the infectious inoculum for 1.5 h at 37 °C, compounds were added in serial dilutions. At 7 d p.i., cells were fixed for 10 min at room temperature using 10% formalin. Finally, cells were washed once with PBS followed by automated fluorescence quantitation.
Seeking for a novel group of potential antiviral agents, small molecules with covalent protein-binding activity were investigated. These small molecules, originally developed as kinase inhibitors, carry a so-called warhead moiety as an important functional group, such as the prototype afatinib (Figure 1A, red circle). In this study, a series of newly generated warhead compounds (most of which are the property of B.K./Lead Discovery Center, Dortmund, Germany) were used for an evaluation of putative antiviral and core NEC-inhibitory properties. In a first step, the antiviral activity of warheads was analyzed against HCMV TB40-IE2-YFP (Figure 1B) and AD169-GFP (Figure 1C). To this end, HFFs were infected with either of the two viral strains before the GFP or YFP reporter signals were measured at 7 d p.i. (in parallel, putative compound cytotoxicity was determined by Neutral Red assay). The HCMVs AD169-GFP and TB40-IE2-YFP, based on BAC-derived recombinants of the laboratory strains AD169 and TB40, respectively, were both propagated on HFFs, and the produced stocks were then used as two reporter viruses for the assessement of antiviral drug activity. While strain AD169 is mainly restricted in its tropism to fibroblasts, TB40 tropism can be extended to fibroblasts and epithelial and endothelial cells. Here, the use of two strains was intended to illustrate the assumption that antiviral activity of these warhead compounds may be directed to conserved viral target proteins, thus pointing out a minor impact of strains.
(A) Chemical structure of a clinically approved prototype of covalently binding warhead inhibitors, […], afatinib/Gilotrif®. The red circle identifies a functionally active α-, β-unsaturated carbonyl group. (B) At 7 d p.i., compounds were analyzed for their cytotoxicity (orange) and antiviral activity (blue) during HCMV infection, using TB40-IE2-YFP as a reporter virus. Cell viability was assessed through Neutral Red staining of uninfected cells. Measurements were performed in quadruplicate (YFP fluorometry) or triplicate (Neutral Red assay), and standard deviations of mean values are given; EC50, CC50 and SI values are indicated accordingly. (C) In a parallel series of analyses, HCMV AD169-GFP was used as another reporter virus representing a second viral strain. […] HCMV AD169-GFP-infected HFFs were treated with 0.1 µM to 50 µM of the compounds (in parallel Neutral Red assay, 0.1 µM to 100 µM), before the signal assessments were performed at 7 d p.i.

The nature of the next data set: in vitro. The format is cell-based, human. To be noted: human. The method, then: as §1
Data set [1] has as its target T1, pUL50–pUL53 interaction (LgBiT::UL53-Flag + SmBiT::UL50-HA) (Human cytomegalovirus, UniProt P16791).
T1 construct: expressed in transfected cells; host or cells: 293T
It is filed as cell-based. To be noted: 293T cells, 5×, 1× or 0.2× anti-HCMV EC50 levels, full-length LgBiT::UL53-Flag.

For data set [2], the target named is T2, pUL50–pUL53 interaction (LgBiT::UL53(1–87)-Flag + SmBiT::UL50-HA) (Human cytomegalovirus, UniProt P16791).
T2 construct: expressed in transfected cells; host or cells: 293T
It is filed as cell-based. To be noted: 293T cells, 5×, 1× or 0.2× anti-HCMV EC50 levels, truncated LgBiT::UL53(1–87)-Flag.

In data set [3] the test system is HCMV pUL53 nuclear rim localization. Briefly: Confocal imaging of pUL53 localization in HCMV AD169-infected HFFs. It is filed as cell-based. The method, then: HFF or HFF-UL50 cells, either Dox-induced or uninduced, were seeded in 6-well plates with a density of 2 × 10^5 cells per well, grown on coverslips and infected with HCMV AD169 or AD169 ∆UL50-ΣUL53. For infection experiments with the recombinant virus, different Shield-1 and Dox conditions were analyzed. Antivirals were added post-infection as described for the experiments. For transfection experiments, HeLa cells were seeded on coverslips in 6-well plates with a density of 3.25 × 10^5 cells per well for cotransfection with the indicated NEC expression plasmids (HSV-1 HA-UL34 + Flag-UL31, HCMV pUL50-HA + pUL53-Flag and EBV HA-BFRF1 + Flag-BFLF2). At indicated time points after virus infection, or 3 days post-transfection, cells were fixed, applied for IF staining as described previously and analyzed using a TCS SP5 confocal laser-scanning microscope with Leica LAS AF software (Leica Microsystems, Wetzlar, Germany). […] The device features a Leica photomultiplier tube (PMT) and a hybrid detector (HyD). Images were further processed using Photoshop CS5 (Adobe Inc., San José, CA, USA). Primary and secondary antibodies used for staining were mAb-UL53.01 (kindly provided by S. Jonjic and T. Lenac Rovis, Rijeka, Croatia), mAb-lamin A/C (ab108595, Abcam, Cambridge, UK), mAb-HA (Clone 7, H9658, Sigma-Aldrich, St. Louis, MO, USA), pAb-Flag (F7425, Sigma-Aldrich, St. Louis, MO, USA), anti-mouse Alexa 555 (A21422, Thermo Fisher Scientific, Waltham, MA, USA) and anti-rabbit Alexa 488 (A11034, Thermo Fisher Scientific, Waltham, MA, USA). Microscopic counting was performed for quantitation of colocalization patterns of two different proteins, as achieved by counting 50 cells per biological triplicate.

The subject of a further data set is HCMV TB40-IE2-YFP. Briefly: microbe, parasite or virus in culture. It is filed as cell-based, human cytomegalovirus (HCMV). The method, then:
Cytotoxicity of the analyzed compounds was determined by the Neutral Red dye uptake assay. A total of 1.35 × 10^5 HFFs per well were seeded in 96-well plates 1 d prior to analysis, cultivated overnight until cells were confluent and then incubated with compounds for 7 days. The assay was performed as described previously using 40 μg/mL Neutral Red (Sigma Aldrich). The quantity of dye incorporation was determined using the Victor X4 microplate reader (PerkinElmer, Waltham, MA, USA) by fluorescence measurement at 560/630 nm for excitation/emission, respectively. […] Finally, cells were washed once with PBS followed by automated fluorescence quantitation.
Seeking for a novel group of potential antiviral agents, small molecules with covalent protein-binding activity were investigated. […] In a first step, the antiviral activity of warheads was analyzed against HCMV TB40-IE2-YFP (Figure 1B) and AD169-GFP (Figure 1C). To this end, HFFs were infected with either of the two viral strains before the GFP or YFP reporter signals were measured at 7 d p.i. (in parallel, putative compound cytotoxicity was determined by Neutral Red assay). […]
(A) Chemical structure of a clinically approved prototype of covalently binding warhead inhibitors, LDC580, afatinib/Gilotrif®. […] Cell viability was assessed through Neutral Red staining of uninfected cells. […]

The next data set relates to HFFs. In words: in vitro. It is filed as cell-based, human. The method, then: as §1
Where [4] appears, read: Human betaherpesvirus 5, AD169, 168 h, clinically relevant warheads, 0.1 µM to 50 µM, AD169-GFP-infected HFFs, 7 d p.i.
The mark [5] stands for this setting: AD169-GFP-infected HFFs, 7 d p.i., 0.1 µM to 50 µM.
[6] abbreviates: HFFs infected with HCMV AD169 (MOI 0.1), 5 d p.i.

T1 sequence (P16791 whole entry): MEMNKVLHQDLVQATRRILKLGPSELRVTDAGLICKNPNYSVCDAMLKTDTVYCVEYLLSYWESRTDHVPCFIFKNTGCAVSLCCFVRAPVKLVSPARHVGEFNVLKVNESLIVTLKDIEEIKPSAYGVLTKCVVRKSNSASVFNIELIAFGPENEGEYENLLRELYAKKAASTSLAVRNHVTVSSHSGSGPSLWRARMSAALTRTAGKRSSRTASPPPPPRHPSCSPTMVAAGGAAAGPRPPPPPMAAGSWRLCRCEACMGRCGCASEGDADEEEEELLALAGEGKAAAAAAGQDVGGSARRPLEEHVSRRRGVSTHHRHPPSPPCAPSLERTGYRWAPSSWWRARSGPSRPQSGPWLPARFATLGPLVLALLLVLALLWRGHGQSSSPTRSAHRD
T2 sequence (P16791 whole entry): as above

As for `C=C1C(=O)O[C@@H]2C[C@@]3(C)CCC[C@H](C)C3=C[C@H]12` [alantolactone], it took 3.2 ± 1.3 µM to reach a half-maximal effect in the data set with HCMV AD169-GFP (setting [4]) (EC50). This compound registered a CC50 at 7 days in the data set “in vitro” of 23 ± 5 µM. Further, the “inhibitory effect on NanoBiT interaction signal (in words)” value in data set [1] and in data set [2] was “very minor or no effects” in each case.

Regarding `CCOc1cc2ncc(C#N)c(Nc3ccc(OCc4ccccn4)c(Cl)c3)c2cc1NC(=O)/C=C/CN(C)C` [neratinib], the EC50 in the data set on HCMV AD169-GFP (setting [4]) was found to be 0.3 ± 0.1 µM. Further, the CC50 at 7 days in the data set “in vitro” (CC50) amounted to 37 ± 1 µM.

For the compound `CCN(CC)C(=O)/C(C#N)=C/c1cc(O)c(O)c([N+](=O)[O-])c1` [entacapone], the “antiviral activity (in words)” value in the data set with HCMV AD169-GFP (setting [5]) is listed as “no notable antiviral activity”. The same compound had an EC50 in the data set on HCMV AD169-GFP (setting [4]) of over 50 µM. The SI entry in the data set with HCMV AD169-GFP (clinically relevant warheads) is “inactive”. Further, the CC50 at 7 days in “in vitro” (CC50) was 93 ± 4 µM.

Regarding `C=CC(=O)N1CCN(c2nc(=O)n(-c3c(C)ccnc3C(C)C)c3nc(-c4c(O)cccc4F)c(F)cc23)[C@@H](C)C1` [sotorasib], the “antiviral activity (in words)” value in the data set with HCMV AD169-GFP (setting [5]) was “no notable antiviral activity”. The compound also had a half-maximal effective concentration (EC50) in the data set on HCMV AD169-GFP (setting [4]) of over 50 µM. Further, the SI entry in the data set with HCMV AD169-GFP (clinically relevant warheads) is “inactive”. This compound also returned a CC50 at 7 days in the data set “in vitro” (CC50) of 95 ± 12 µM.

The compound `C=CC(=O)Nc1cc(Nc2nccc(-c3cn(C)c4ccccc34)n2)c(OC)cc1N(C)CCN(C)C` [osimeritinib] showed an EC50 with HCMV AD169-GFP (setting [4]) of 1 ± 0.8 µM. In the data set “in vitro” (clinically relevant warheads, 0.1 µM to 100 µM, Neutral Red, uninfected HFFs, 7 d, read-out: CC50), the CC50 at 7 days was found to be 23 µM. Further, the “inhibitory effect on NanoBiT interaction signal (in words)” value in data set [1] and in data set [2] was “very minor or no effects” each time.

For `C=C1C(=O)O[C@H]2[C@H]1CC/C(C)=C/CC[C@@]1(C)O[C@@H]21` [parthenolide], the “antiviral activity (in words)” value in the data set with HCMV AD169-GFP (setting [5]) is recorded as “no notable antiviral activity”. The compound also yielded an EC50 in the data set with HCMV AD169-GFP (setting [4]) of 6.7 ± 3.4 µM. This compound registered a CC50 at 7 days in the data set “in vitro” (CC50) of 9 ± 0.4 µM.

For `CC(C)Nc1nc2cc(Cl)c(Cl)cc2n1[C@H]1O[C@@H](CO)[C@H](O)[C@@H]1O` [MBV, maribavir], the “pUL53 localization (in words)” value in data set [3] (setting [6]) was “predominant dot-like structures”. The “intranucleoplasmic coaggregation of lamin A/C (in words)” value in data set [3] (HFFs infected with HCMV AD169 (MOI 0.1), 5 d p.i., called preliminary) is recorded as “also visible”.

Regarding `COC[C@H]1OC(=O)c2coc3c2[C@@]1(C)C1=C(C3=O)[C@@H]2CCC(=O)[C@@]2(C)C[C@H]1OC(C)=O` [wortmannin], the “antiviral activity (in words)” value in the data set with HCMV AD169-GFP (setting [5]) is “no notable antiviral activity”. This compound had a 50% effective concentration (EC50) in the data set on HCMV AD169-GFP (Human betaherpesvirus 5, AD169, 168 h) of over 50 µM. Also, the SI result in the data set with HCMV AD169-GFP (clinically relevant warheads) was “inactive”. In addition, the CC50 at 7 days in “in vitro” was over 100 µM.

As to `CN(C)C/C=C/C(=O)Nc1cc2c(Nc3ccc(F)c(Cl)c3)ncnc2cc1O[C@H]1CCOC1` [LDC580, afatinib], the EC50 in the data set with HCMV TB40-IE2-YFP (Human betaherpesvirus 5, 168 h) came to 0.8 µM; in the data set on HCMV AD169-GFP (Human betaherpesvirus 5, AD169, 168 h, HFFs infected with HCMV AD169-GFP, 7 d p.i., investigational LDC warheads), 0.6 µM. The compound also returned a CC50 at 7 days in the data set “in vitro” (CC50) of over 10 µM. Moreover, the CC50 with HFFs (human, 7 days) is about 9 µM. Also, in data set [3] (setting [6]), the “pUL53 localization (in words)” value is recorded as “no comparable effect”.

On to `COC(=O)[C@]12CCC(C)(C)C[C@H]1[C@H]1C(=O)C=C3[C@@]4(C)C=C(C#N)C(=O)C(C)(C)[C@@H]4CC[C@@]3(C)[C@]1(C)CC2` [CDDO-Me, 2-cyano-3,12-dioxooleana-1,9(11)-dien-28-oic acid methyl ester], for which the “antiviral activity (in words)” value with HCMV AD169-GFP (setting [5]) is on record as “no notable antiviral activity”. In addition, in the data set with HCMV AD169-GFP (setting [4]), the EC50 is under 0.4 µM. Also, the CC50 at 7 days in the data set “in vitro” was over 0.8 µM.

Turning to `CCOc1cc(/C=c2\sc3n(c2=O)C(c2ccccc2OC)C(C(C)=O)=C(C)N=3)ccc1O` (stereo not drawn) [LDC492], the EC50 in the data set with HCMV TB40-IE2-YFP (HFFs infected with HCMV TB40-IE2-YFP, 7 d p.i., YFP fluorometry, read-out: EC50) is over 10 µM; with HCMV AD169-GFP (HFFs infected with HCMV AD169-GFP, 7 d p.i., investigational LDC warheads, read-out: EC50), 8.9 ± 6.6 µM. In addition, in the data set on HFFs, the CC50 is over 10 µM. For the same compound, the “cells with partial or predominant dot-like localization of pUL53 within the nucleoplasm” value in data set [3] (HCMV AD169 MOI 0.1, 5 d p.i., concentrations of partial-grade antiviral activity, 50 cells counted per biological triplicate) is “more than 50%”.
